Converted amounts (≈) assume the structure as drawn. “And” between values parts separate entries of the source, which are not always exact repeats. Equal values may be shown once. Read-outs that look alike come from different tables or passages of the source.
Key:
[1] = molecular target: KPC-3 in purified protein extract from E. coli 82 TR(pl 81) (Klebsiella pneumoniae, UniProt Q9F663, H272Y); test: nitrocefin hydrolysis test; format: biochemical; conditions: single repetitions
Description: Overnight culture of E. coli 82 TR(pl 81) in MHB was diluted 1:100 into fresh MHB and incubated with shaking at 37 °C until an OD600 of 1 was attained. […] Further incubation was performed under the same conditions until an OD600 of 3 was reached. The culture with the required OD600 was centrifuged (6700× g, 10 min) and the supernatant was discarded. From the obtained bacterial cell pellet total proteins were extracted with the ReadyPreps™ Protein Preparation Kit (Epicentre Biotechnologies, Madison, WI, USA) and used in the subsequent nitrocefin hydrolysis test, performed in a 96-well microplate. Nitrocefin is a chromogenic cephalosporin substrate routinely used to detect the presence of β-lactamases. First, 20 μL of the protein extract was mixed with 80 μL of tested agents (1a, 2a, 3a and PBA as a reference BLI, each examined at concentrations: 4, 8 and 16 mg/L) or with 80 μL of the phosphate buffer (positive control—corresponding to KPC enzyme activity in the purified total proteins extracted from E. coli 82 TR(pl 81) cells). After 10 min of incubation at the room temperature 100 μL of the nitrocefin (Oxoid, Basingstoke, Hampshire, England) was added to reach its final concentration of 150 μM. β-lactamases hydrolyze the β-lactam ring of nitrocefin, causing its degradation and color change. Nitrocefin hydrolysis was evaluated after 3 min of the incubation at room temperature.
As in our previous publication the presence of β-lactamases in the purified protein extract with and without tested agents was assessed by the spectrophotometric measurement of the rates of nitrocefin hydrolysis as relative absorbance at 486 nm. The level of the measured absorbance indicated β-lactamase activity. Finally, the difference in the relative absorbance between the positive control and the sample concentration of the tested inhibitors was calculated and expressed as a percentage. A reduction in the relative absorbance level in the presence of a tested agent was taken as an indicator of the BLI activity of a used aromatic diboronic acid. The experiment was performed in triplicate.

[2] = test system: KPC producers; test: microdilution with carbapenems; format: cell-based
Description: (§1) To examine the ability of tested agents to inhibit various carbapenemases and AmpC-enzymes, their synergy with antibiotics against β-lactamase-producing strains was assessed by checkerboard microdilution assay, with slight modification. Checkerboards were prepared in microtiter plates, with seven two-fold dilutions of β-lactams (1–64 mg/L) in the rows and three two-fold dilutions of tested agents and PBA (4–16 mg/L) in the columns. Tested agents’ concentrations were limited to the concentrations at which the newest commercially available BLIs (vaborbactam, relebactam, and avibactam) are used in susceptibility testing. Plates were inoculated and incubated as in the MIC microdilution assay. Parallel, MICs of tested agents and PBA alone were determined by the microdilution assay. Following the incubation, antibiotic MICs in the presence of each agent’s concentration were determined. Moreover, for the first well without growth found in each checkerboard row and column along the growth/non-growth interface, the fractional inhibitory concentration index (FICI) was calculated using the formula below:FICI = [(MIC of antibiotic in combination)/(MIC of antibiotic alone)] + [(MIC of the tested agent in combination)/(MIC of tested agent alone)].
(§2) For calculations, all off-scale MICs were converted to the next-highest doubling concentration. Subsequently, both the average and the lowest FICI were interpreted. The interpretation was as follows: FICI ≤ 0.5, synergy; 0.5 < FICI ≤ 4, indifference and FICI > 4, antagonism. Primarily, examined combinations consisted of meropenem (Pol-Aura, Morag, Poland) plus tested agents against carbapenemases-producing strains and ceftazidime (Pol-Aura, Morag, Poland) plus tested agents against AmpC-producing strains. For agents that reduced meropenem MIC at least 4-fold for at least two tested strains, similar assays were performed with imipenem (Pol-Aura, Morag, Poland) and ertapenem (Pol-Aura, Morag, Poland).

[3] = test system: E. coli 82 TR(pl 81), transformant carrying blaKPC-3; test: whole cell assay, meropenem MIC with tested agent; format: cell-based, Escherichia coli; conditions: for MIC: Escherichia coli, read-out: MIC of agent alone
Description: as §1

[4] = test system: E. coli DH5α; test: whole cell assay, meropenem MIC with tested agent; format: cell-based, Escherichia coli
Description: as §1

[5] = test system: Gram-positive strains; test: direct antimicrobial activity, MIC; format: cell-based
Description: (§3) Direct antimicrobial activity against Gram-negative and Gram-positive bacterial strains, as well as against yeast, was examined as previously described by the disc-diffusion test, the MIC determination assay, the MBC (for bacteria), and the MFC (for yeasts) determination tests. All the above-mentioned tests were performed according to EUCAST [71, 72] and CLSI [73, 74, 75, 76, 77] recommendations. The following reference agents were used: nitrofurantoin (for Gram-negative rods), linezolid (for Gram-positive bacteria), and fluconazole (in the case of fungi). The new aromatic diboronic acids were dissolved in DMSO (Sigma, St. Louis, MO, USA). In the disc-diffusion test, the concentration of new agents was 0.4 mg per disc. Depending on the solubility, the MIC and MBC/MFC values were determined up to 100 mg/L for 1k, up to 200 mg/L for 7c, and up to 400 mg/L for the remaining compounds: 1a–1j, 2a–2g, 3a–3f, 4a–4b, 5a–5c, 6a and 7a–7b.

[6] = test system: yeasts; test: antifungal activity, MIC/MFC; format: cell-based; conditions: for MFC: yeasts against which fungicidal activity was noticed
Description: as §3

[7] = test system: Gram-negative rods; test: MIC in the presence of efflux pump inhibitor PAβN; format: cell-based; conditions: PAβN 20 mg/L
Description: To investigate the contribution of the MDR efflux pumps to the resistance of Gram-negative rods to the newly synthesized compounds, the MIC values of studied agents, with or without the pump inhibitor, PAβN (20 mg/L) (Sigma, St. Louis, MO, USA), were evaluated. The MIC determination was performed in Mueller–Hinton II broth medium (MHB) (Becton, Dickinson and Company, Franklin Lakes, NJ, USA) using 2-fold serial dilutions of tested agents, according to the CLSI guidelines. To minimize the influence of PAβN on the destabilization of bacterial cell covers, the tests were conducted in the presence of 1 mM MgSO4 (Sigma, St. Louis, MO, USA). At least a 4-fold reduction in the MIC value after the addition of PAβN was considered significant.

[8] = test system: AmpC producers; test: microdilution with ceftazidime; format: cell-based
Description: as §1, §2

[9] = Escherichia coli; read-out: MIC of agent alone

KPC-3 in purified protein extract from E. coli 82 TR(pl 81), sequence (Q9F663 25-293 H272Y): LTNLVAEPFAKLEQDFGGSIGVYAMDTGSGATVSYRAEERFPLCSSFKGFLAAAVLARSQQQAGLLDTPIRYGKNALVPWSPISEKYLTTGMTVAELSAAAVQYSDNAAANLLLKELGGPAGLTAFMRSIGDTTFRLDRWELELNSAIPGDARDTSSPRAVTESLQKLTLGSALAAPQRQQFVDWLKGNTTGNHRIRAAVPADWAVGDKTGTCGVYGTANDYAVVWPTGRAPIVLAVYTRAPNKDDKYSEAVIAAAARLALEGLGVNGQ

## OB(O)c1ccc(B(O)O)cc1 [1a]
[1]; agent 4 mg/L
  Relative absorbance (nitrocefin hydrolysis, 486 nm): 1.348 and 1.320 and 1.308
[1]; agent 8 mg/L
  Relative absorbance (nitrocefin hydrolysis, 486 nm): 1.214 and 1.079 and 1.201
[1]; agent 16 mg/L
  Relative absorbance (nitrocefin hydrolysis, 486 nm): 0.998 and 1.066 and 1.076
[2]; agent 4 mg/L
  carbapenems' MIC reduction, up to: ≤ 2 fold
[2]; agent 8 mg/L
  carbapenems' MIC reduction, up to: up to 8 fold
[2]; all KPC producers
  ertapenem potentiation better than PBA, by up to: up to 8 fold
[3]
  MIC: > 400 µg/mL
[3]; agent 4 mg/L
  MIC of meropenem in combination with agent: 0.50 µg/mL
[3]; agent 8 mg/L
  MIC of meropenem in combination with agent: 0.25 µg/mL
[3]; agent 16 mg/L
  MIC of meropenem in combination with agent: 0.125 µg/mL
[4]; [9]
  MIC: > 400 µg/mL
[4]; agent 16 mg/L
  MIC of meropenem in combination with agent: 0.016 µg/mL

## OB(O)c1ccc(B(O)O)c(F)c1F [1c]
[5]; enterococci
  MIC: 100 to 400 µg/mL (≈ 496 to 1980 µM)
[5]; staphylococci
  MIC: 12.5 to 50 µg/mL (≈ 62 to 248 µM)

## OB(O)c1cc(F)c(B(O)O)cc1F [1e]
[5]; enterococci
  MIC: 100 to 400 µg/mL (≈ 496 to 1980 µM)
[5]; staphylococci
  MIC: 12.5 to 50 µg/mL (≈ 62 to 248 µM)

## OB(O)c1cc(Br)c(B(O)O)cc1Br [1i]
[6]; moderate antifungal activity
  MIC: 6.25 to 50 µg/mL (≈ 19.3 to 155 µM)

## OB(O)c1cccc(B(O)O)c1 [2a]
[1]; agent 4 mg/L
  Relative absorbance (nitrocefin hydrolysis, 486 nm): 1.605 and 1.649 and 1.595
[1]; agent 8 mg/L
  Relative absorbance (nitrocefin hydrolysis, 486 nm): 1.520 and 1.499 and 1.528
[1]; agent 16 mg/L
  Relative absorbance (nitrocefin hydrolysis, 486 nm): 1.377 and 1.274 and 1.280
[3]
  MIC: > 400 µg/mL
[3]; agent 4 mg/L
  MIC of meropenem in combination with agent: 1 µg/mL
[3]; agent 8 mg/L
  MIC of meropenem in combination with agent: 1 µg/mL
[3]; agent 16 mg/L
  MIC of meropenem in combination with agent: 1 µg/mL
[3]; agent 4, 8 and 16 mg/L
  meropenem MIC reduction: 2 fold
[4]; [9]
  MIC: > 400 µg/mL
[4]; agent 16 mg/L
  MIC of meropenem in combination with agent: 0.016 µg/mL

## OB(O)c1cc(C(F)(F)F)cc(B(O)O)c1F [2e]
[7]
  reduction of MIC in the presence of PAβN: 4–16 fold
[5]; enterococci
  MIC: 50 to 100 µg/mL (≈ 199 to 397 µM)
[5]; staphylococci
  MIC: 0.78 to 12.5 µg/mL (≈ 3.1 to 49.7 µM)

## OB(O)c1ccccc1B(O)O [3a, phenylene-1,2-diboronic acid]
[1]; agent 4 mg/L
  Relative absorbance (nitrocefin hydrolysis, 486 nm): 1.451 and 1.436 and 1.174
[1]; agent 8 mg/L
  Relative absorbance (nitrocefin hydrolysis, 486 nm): 1.305 and 1.279 and 1.249
[1]; agent 16 mg/L
  Relative absorbance (nitrocefin hydrolysis, 486 nm): 1.090 and 1.114 and 1.077
[8]; agent 4 mg/L
  ceftazidime MIC reduction, up to: ≤ 2 fold
[8]; agent 8 mg/L
  ceftazidime MIC reduction, up to: up to 4 fold
[8]; agent 16 mg/L
  ceftazidime MIC reduction, up to: ≤ 8 fold
[2]; agent 4 mg/L
  carbapenems' MIC reduction, up to: ≤ 8 fold
[2]; agent 8 mg/L
  carbapenems' MIC reduction, up to: up to 16 fold
[2]; agent 16 mg/L
  carbapenems' MIC reduction, up to: up to 64 fold
[2]; checkerboard assays
  fractional inhibitory concentrations indices with carbapenems: 0.1–0.32
[3]; agent 4 mg/L
  MIC of meropenem in combination with agent: 0.50 µg/mL
  meropenem MIC reduction: 4 fold
[3]; agent 8 mg/L
  MIC of meropenem in combination with agent: 0.125 µg/mL
  meropenem MIC reduction: 16 fold
[3]; agent 16 mg/L
  MIC of meropenem in combination with agent: 0.062 µg/mL
  meropenem MIC reduction: 32 fold
[4]; [9]
  MIC: 400 µg/mL
[4]; agent 16 mg/L
  MIC of meropenem in combination with agent: 0.016 µg/mL

## OB(O)c1cccc(F)c1B(O)O [3b]
[8]; agent 4 mg/L
  ceftazidime MIC reduction, up to: ≤ 2 fold
[8]; agent 8 mg/L
  ceftazidime MIC reduction, up to: up to 4 fold
[8]; agent 16 mg/L
  ceftazidime MIC reduction, up to: ≤ 8 fold

## OB(O)c1ccc(C(F)(F)F)cc1B(O)O [3e]
[7]
  reduction of MIC in the presence of PAβN: 4–16 fold
[6]; most Candida spp.
  MIC: 3.12 to 6.25 µg/mL (≈ 13.3 to 26.7 µM)
[6]
  MFC: 400 µg/mL (≈ 1710 µM)

## OB(O)c1ccc(B(O)O)c(B(O)O)c1 [4b, benzene-1,2,4-triboronic]
[8]; agent 4 mg/L
  ceftazidime MIC reduction, up to: ≤ 2 fold
[8]; agent 8 mg/L
  ceftazidime MIC reduction, up to: up to 4 fold
[8]; agent 16 mg/L
  ceftazidime MIC reduction, up to: ≤ 8 fold

## OB(O)c1ccsc1B(O)O [5a, thiophene-2,3-diboronic acid]
[8]; agent 4 mg/L
  ceftazidime MIC reduction, up to: ≤ 2 fold
[8]; agent 8 mg/L
  ceftazidime MIC reduction, up to: up to 4 fold
[8]; agent 16 mg/L
  ceftazidime MIC reduction, up to: ≤ 8 fold

## OB(O)c1cc(F)ccc1F [7a, 2,5-difluorophenylboronic acid]
[8]; agent 4 mg/L
  ceftazidime MIC reduction, up to: ≤ 8 fold
[8]; agent 8 mg/L
  ceftazidime MIC reduction, up to: up to 16 fold
[8]; agent 16 mg/L
  ceftazidime MIC reduction, up to: up to 32 fold
[2]; agent 4 mg/L
  carbapenems' MIC reduction, up to: ≤ 2 fold
[2]; agent 8 mg/L
  carbapenems' MIC reduction, up to: up to 8 fold

## O=Cc1cc(F)ccc1B(O)O [7b]
[7]
  reduction of MIC in the presence of PAβN: 4–16 fold
[5]; enterococci
  MIC: 100 to 400 µg/mL (≈ 595 to 2380 µM)
[5]; staphylococci
  MIC: 12.5 to 50 µg/mL (≈ 74.4 to 298 µM)

## OB(O)c1ccccc1S [7c, 2-mercaptophenylboronic acid]
[6]
  MFC: 25 to 200 µg/mL (≈ 162 to 1300 µM)
[5]; all tested coccis
  MIC: 12.5 to 25 µg/mL (≈ 81.2 to 162 µM)

## OB(O)c1ccccc1 [PBA, phenylboronic acid, reference compound]
[1]; agent 4 mg/L
  Relative absorbance (nitrocefin hydrolysis, 486 nm): 1.093 and 1.087 and 1.232
[1]; agent 8 mg/L
  Relative absorbance (nitrocefin hydrolysis, 486 nm): 1.183 and 1.165 and 1.117
[1]; agent 16 mg/L
  Relative absorbance (nitrocefin hydrolysis, 486 nm): 0.975 and 0.933 and 0.957
[2]; agent 16 mg/L, KPC-2 producers
  carbapenems' MIC reduction, up to: up to 8 fold
[2]; agent 16 mg/L, KPC-3 producers
  carbapenems' MIC reduction, up to: up to 4 fold
[3]
  MIC: > 400 µg/mL
[3]; agent 4 mg/L
  MIC of meropenem in combination with agent: 0.50 µg/mL
[3]; agent 8 mg/L
  MIC of meropenem in combination with agent: 0.25 µg/mL
[3]; agent 16 mg/L
  MIC of meropenem in combination with agent: 0.25 µg/mL
[4]; Escherichia coli, read-out: MIC of agent alone
  MIC: > 400 µg/mL
[4]; agent 16 mg/L
  MIC of meropenem in combination with agent: 0.016 µg/mL
